Source: the supplement of paper PMC10307832

What was measured:
Test in all cases: relative viability (nuclei count vs DMSO), 5 days (fraction); higher = more cells survive
Irinotecan + Trametinib = compound: CCc1c2c(nc3ccc(OC(=O)N4CCC(N5CCCCC5)CC4)cc13)-c1cc3c(c(=O)n1C2)COC(=O)[C@]3(O)CC [Irinotecan] + CC(=O)Nc1cccc(-n2c(=O)n(C3CC3)c(=O)c3c(Nc4ccc(I)cc4F)n(C)c(=O)c(C)c32)c1 [Trametinib] (partner 0.02 µM)
How it was run: (§1)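 Relative viability divides the nuclei count in treated wells by that in vehicle wells. Lung cancer cell lines were seeded in 1536-well plates, dosed by pin tool the next day, and fixed and stained after 5 days in one step with final 0.05% Triton X-100, 1% formaldehyde and 1 ug/ml Hoechst. Dosing was a single drug or a fixed anchor-drug dose plus five library-drug doses (not always all listed) in √10 steps, and values are medians of duplicate plates imaged at 4×.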

Irinotecan + Alpelisib = compound: CCc1c2c(nc3ccc(OC(=O)N4CCC(N5CCCCC5)CC4)cc13)-c1cc3c(c(=O)n1C2)COC(=O)[C@]3(O)CC [Irinotecan] + Cc1nc(NC(=O)N2CCC[C@H]2C(N)=O)sc1-c1ccnc(C(C)(C)C(F)(F)F)c1 [Alpelisib] (partner 2 µM)
How it was run: as §1

RU-SKI 43 + Palbociclib = compound: CC[C@@H](C)CNCC(=O)N1CCC2=C([C@@H]1COC3=CC=CC(=C3)C)C=CS2 [RU-SKI 43] + CC(=O)c1c(C)c2cnc(Nc3ccc(N4CCNCC4)cn3)nc2n(C2CCCC2)c1=O [Palbociclib] (partner 0.5 µM)
How it was run: as §1

MK-8033 + Luminespib = compound: Cn1cc(-c2cnc3ccc4ccc(CS(=O)(=O)NCc5ccccn5)cc4c(=O)c3c2)cn1 [MK-8033] + CCNC(=O)c1noc(-c2cc(C(C)C)c(O)cc2O)c1-c1ccc(CN2CCOCC2)cc1 [Luminespib] (partner 0.01 µM)
How it was run: as §1

Cell Line | relative viability (Irinotecan + Trametinib; first compound 0.6325 µM) | relative viability (Irinotecan + Trametinib; first compound 2 µM) | relative viability (Irinotecan + Trametinib; first compound 6.325 µM) | relative viability (Irinotecan + Trametinib; first compound 20 µM) | relative viability (Irinotecan + Alpelisib; first compound 0.6325 µM) | relative viability (Irinotecan + Alpelisib; first compound 2 µM) | relative viability (Irinotecan + Alpelisib; first compound 6.325 µM) | relative viability (Irinotecan + Alpelisib; first compound 20 µM) | relative viability (RU-SKI 43 + Palbociclib; first compound 0.3162 µM) | relative viability (RU-SKI 43 + Palbociclib; first compound 1 µM) | relative viability (RU-SKI 43 + Palbociclib; first compound 3.162 µM) | relative viability (RU-SKI 43 + Palbociclib; first compound 10 µM) | relative viability (MK-8033 + Luminespib; first compound 0.02 µM) | relative viability (MK-8033 + Luminespib; first compound 0.2 µM) | relative viability (MK-8033 + Luminespib; first compound 0.6325 µM) | relative viability (MK-8033 + Luminespib; first compound 2 µM) | relative viability (RU-SKI 43 + Palbociclib; first compound 0.1 µM) | relative viability (MK-8033 + Luminespib; first compound 0.06325 µM)
NCI-H727 | 0.373 | 0.336 | 0.382 | 0.346 | 0.324 | 0.433 | 0.354 | 0.422 | 0.559 | 0.682 | 0.671 | 0.622 | 0.434 | 0.291 | 0.346 | 0.516 |  | 
HOP-62 | 0.311 | 0.23 | 0.23 | 0.228 | 0.244 | 0.171 | 0.158 | 0.129 | 0.508 | 0.532 | 0.469 | 0.403 | 0.938 | 0.814 | 0.941 | 0.86 | 0.462 | 0.794
NCI-H2405 |  | 0.734 | 0.358 | 0.179 |  | 0.678 | 0.291 | 0.0889 | 0.603 | 0.551 | 0.576 | 0.503 | 0.711 | 0.65 | 0.64 | 0.814 | 0.504 | 0.614
A-427 | 0.719 | 0.657 | 0.365 | 0.175 |  | 0.19 | 0.176 | 0.185 | 0.532 | 0.523 | 0.564 | 0.503 | 0.85 | 0.83 | 0.88 | 0.91 | 0.536 | 0.85
LCLC-97TM1 | 0.131 | 0.14 | 0.128 | 0.154 | 0.105 | 0.165 | 0.154 | 0.224 | 0.189 | 0.281 | 0.222 | 0.231 | 0.883 | 0.709 | 0.845 | 0.669 | 0.296 | 0.662
NCI-H3122 | 0.192 | 0.146 | 0.111 | 0.108 | 0.824 | 0.301 | 0.244 | 0.255 | 0.166 | 0.185 | 0.182 | 0.166 | 0.0907 | 0.0777 | 0.0917 | 0.0881 | 0.193 | 0.0983
RERF-LC-KJ | 0.869 | 0.63 | 0.433 | 0.282 |  | 0.835 | 0.501 | 0.454 | 1.4 | 1.15 | 1 | 0.851 | 1.14 | 1.25 | 1.24 | 1.06 | 1.1 | 1.14
NCI-H2170 | 0.798 | 0.309 | 0.119 | 0.111 | 0.929 | 0.399 | 0.3 | 0.216 | 0.467 | 0.419 | 0.453 | 0.372 | 0.435 | 0.694 | 0.622 | 0.726 | 0.394 | 0.388
HCC-44 | 1.01 | 0.868 | 0.561 | 0.421 | 0.669 | 0.347 | 0.28 | 0.313 | 0.987 | 0.97 | 1.03 | 0.953 | 1.06 | 1.01 | 1.3 | 1.05 | 0.942 | 1.02
HCC-15 | 0.325 | 0.233 | 0.179 | 0.174 | 0.478 | 0.239 | 0.144 | 0.173 | 0.883 | 0.76 | 0.753 | 0.665 | 0.281 | 0.263 | 0.253 | 0.307 | 0.706 | 0.397
SK-LU-1 | 0.36 | 0.417 | 0.399 | 0.316 | 0.459 | 0.541 | 0.351 | 0.273 | 0.386 | 0.403 | 0.416 | 0.354 | 0.188 | 0.223 | 0.188 | 0.192 | 0.386 | 0.236
NCI-H1793 |  | 0.515 | 0.351 | 0.262 |  | 0.668 | 0.383 | 0.259 | 0.222 | 0.326 | 0.336 | 0.27 | 0.174 | 0.161 | 0.209 | 0.162 | 0.331 | 0.217
H3255 |  | 0.506 | 0.346 | 0.37 | 0.665 | 0.409 | 0.321 | 0.272 | 0.316 | 0.331 | 0.32 | 0.301 | 0.864 | 0.834 | 0.896 | 0.916 | 0.313 | 0.737
